Columns and labels:
AdipoR2 = target: T1, AdipoR2 (Mus musculus, UniProt Q8BQS5); experiment: ULMA-AdipoR interaction assay (ULMA beads, C2C12 myotube membrane extracts, western blot); type: binding; settings: 50 μg membrane extract, 12 hours
T1 construct: C2C12 myotubes (that express both AdipoR1 and AdipoR2) were incubated with 20 μl control or ULMA-beads; endogenous in cells; host or cells: C2C12 myotubes (mouse), plasma membrane extract
T1 sequence (Q8BQS5 1-386): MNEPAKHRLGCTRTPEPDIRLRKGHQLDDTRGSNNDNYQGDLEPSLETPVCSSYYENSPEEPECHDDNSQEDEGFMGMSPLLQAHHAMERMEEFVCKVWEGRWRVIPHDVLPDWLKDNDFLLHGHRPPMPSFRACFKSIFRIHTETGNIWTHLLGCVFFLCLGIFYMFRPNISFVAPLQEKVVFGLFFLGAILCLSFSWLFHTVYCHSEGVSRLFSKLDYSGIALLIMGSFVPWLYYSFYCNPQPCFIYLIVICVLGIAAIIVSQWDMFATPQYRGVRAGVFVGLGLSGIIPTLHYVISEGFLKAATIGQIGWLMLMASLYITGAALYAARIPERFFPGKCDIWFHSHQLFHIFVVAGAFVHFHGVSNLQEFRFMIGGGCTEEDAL
Procedure: (§1) B. ULMA interacts with AdipoRs. 20 μl of ULMA beads or control beads were incubated with 50 μg of plasma membrane extracts (prepared using a membrane protein isolation kit; Biomol; according to manufacturer's instructions) prepared from C2C12 myotubes (that expresses both AdipoR1 and AdipoR2) for 12 h on a rotary wheel set at 10 rpm. The supernatant was removed and an aliquot was stored as flowthrough. The pellet was washed 6 times and then the beads were boiled in Lamelli buffer and resolved by 10% denaturing polyacrylamide gel electrophoresis followed by transfer on nitrocellulose membrane and western blotting with anti AdipoR1 or anti-AdipoR2 antibodies. Data represents one of two independent experiments showing identical pattern.
(§2) To investigate whether this enhancement of PPAR ligand activity by ULMA indeed happens through AdipoRs, physical interaction between ULMA and AdipoRs were assessed. The ULMA was immobilized on agarose beads.
(§3) Preparation of ULMA Specific Affinity Matrix:
(§4) ULMA specific Affinity Matrix and Control Matrix were prepared using following protocol.
(§5) 1. 45 mg and 22.5 mg of epoxy-activated agarose beads (sigma) were weighed and put separately in two 1.5 ml eppendorf tubes. Tubes were labeled as tube-1 and tube-2. 2. The beads were washed 6×, 1 ml each, with double distilled water (DDW). […] At this stage beads were ready for incubation with protein source. […]

AdipoR1 = target: T2, AdipoR1 (Mus musculus, UniProt Q91VH1); experiment: as above; type: binding; settings: 50 μg membrane extract, 12 hours
T2 construct: C2C12 myotubes (that express both AdipoR1 and AdipoR2) were incubated with 20 μl control or ULMA-beads; endogenous in cells; host or cells: C2C12 myotubes (mouse), plasma membrane extract
T2 sequence (Q91VH1 1-375): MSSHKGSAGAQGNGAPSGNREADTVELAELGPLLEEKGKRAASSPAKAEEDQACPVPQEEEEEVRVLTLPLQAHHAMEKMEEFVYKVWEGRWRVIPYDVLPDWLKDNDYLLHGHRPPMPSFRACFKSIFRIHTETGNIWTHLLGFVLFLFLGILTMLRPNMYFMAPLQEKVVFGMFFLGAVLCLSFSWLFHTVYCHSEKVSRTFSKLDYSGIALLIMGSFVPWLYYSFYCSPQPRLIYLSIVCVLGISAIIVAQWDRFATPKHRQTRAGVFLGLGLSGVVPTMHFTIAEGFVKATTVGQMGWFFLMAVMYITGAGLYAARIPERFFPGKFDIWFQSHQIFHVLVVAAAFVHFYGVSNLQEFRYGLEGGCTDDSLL
Procedure: as §1, §2, §3, §4, §5

`O=C1c2c(cc(O)c([C@@H]3O[C@H](CO)[C@@H](O)[C@H](O)[C@H]3O)c2O)O[C@@H](c2ccc(O)c(O)c2)[C@@H]1O` [ULMA, (2S,3S)-(+)-3′,4′,5,7-tetrahydroxydihydroflavonol-6-C-β-D-glucopyranoside] was tested. Which “AdipoR2 detection on ULMA beads vs control beads” value (AdipoR2) did it give?
Its value is “detected on ULMA beads”.

What about the “AdipoR1 detection on ULMA beads vs control beads” value (AdipoR1) of the same compound?
The value was “detected on ULMA beads”.

From patent US20160193240A1, “Ulmoside-A: Useful For Prevention Or Cure Of Metabolic Diseases” (COUNCIL OF SCIENTIFIC & INDUSTRIAL RESEARCH, priority 2013, published 2016)
